Test: Pharmacokinetic release profile of novolimus from a stent (FIG. 35)
Type: in vivo

therapeutic tissue drug concentration (at 90 days): 0.5 ng/mg | drug released (in one month, from a stent): over 85%
Structure (SMILES): CO[C@@H]1C[C@H](C[C@@H](C)[C@@H]2CC(=O)[C@H](C)/C=C(\C)[C@@H](O)[C@@H](OC)C(=O)[C@H](C)C[C@H](C)/C=C/C=C/C=C(\C)[C@@H](O)C[C@@H]3CC[C@@H](C)[C@@](O)(O3)C(=O)C(=O)N3CCCC[C@H]3C(=O)O2)CC[C@H]1O [novolimus, 16-O-desmethyl-rapamycin]

— US8814930B2, “Biodegradable endoprosthesis and methods for their fabrication” (Elixir Medical Corporation, priority 2007, dated 2014)
